For experiment [1], the target named is B*3501 (Homo sapiens, UniProt P01889, A329T/A93T/A95T/C349S/D201E/D98Y/E176V/E187L/E204Q/E69T/I218V/K202T/L119I/Q94N/R155S/R180L/S121R/S35A/S48A/T118I/V127L/V306I/V36M/Y140S/Y91F). The experiment in a line: HLA class I peptide binding assay, B*3501.
Experiment [2] concerns the target B*5301 (Homo sapiens, UniProt P01889, A329T/A93T/A95T/C349S/D201E/D98Y/E176V/E187L/E204Q/E69T/G107R/I218V/K202T/L105A/L119I/N104I/Q94N/R106L/R155S/R180L/S101N/S121R/S35A/S48A/T118I/V127L/V306I/V36M/Y140S/Y91F). As to the kind of experiment: HLA class I peptide binding assay, B*5301.
For experiment [3], the target named is B*5401 (Homo sapiens, UniProt P01889, A329T/C349S/D138N/D201E/E176V/E187T/E204Q/E69G/I76V/K202T/L119W/R155S/R180L/S121T/S35A/S48A/V127L/V306I/V36M/Y140L). The experiment in a line: biochemical. It counts as binding.
The target in experiment [4] is B*0702 (Homo sapiens, UniProt P01889). As to the kind of experiment: biochemical. It counts as binding.
Experiment [5] deals with T helper lymphocytes. To be noted: individuals regardless of HLA type; cited from earlier work.

pIC50: −log10 of the molar value. No end group written: not given here.

For orientation: pIC50 means the negative decadic logarithm of the IC50, by convention in mol/L. Lower therefore signals a large IC50.

In the case of FPFCLAFSY [Peptide 2511], the pIC50 in experiment [1] is 8.19; in experiment [2], 8.32; in experiment [3], 8.29.
Turning to FPHCLAFAL [Peptide 2509], the figures for the pIC50 in experiment [4], in experiment [2] and in experiment [3] were 7.60, 8.30 and 7.62, respectively.
In the case of FPHCLAFSI [Peptide 2512], the pIC50 in experiment [4] is 6.17; in experiment [2], 8.42; in experiment [3] it was 9.00.
On to FPHCLAFSL [Peptide 2510], for which the negative-log IC50 (pIC50) in experiment [4] is 7.13; in experiment [2], 7.82.
For aKXVWANTLKAAa, in experiment [5], the “stimulation of T helper lymphocyte response” value is reported as “stimulate the response of T helper lymphocytes from most individuals”.
For the substance FPHCLAFSA [Peptide 2513], the negative logarithm of the IC50 (pIC50) in experiment [4] was 5.44; in experiment [1], 8.19; in experiment [2], 6.86; in experiment [3], 9.22.
Regarding FPIPSSWAF [Peptide 2506], the pIC50 in experiment [4] was 7.62.

Values taken from patent publication US7611713B2 (priority 1999, dated 2009).
